Assays:
Cannabinoid receptor 1 = Cannabinoid receptor 1 (Homo sapiens, UniProt P21554); experiment: cAMP Assay; details: 37 °C
Experimental: (§1) CHO cells expressing human CB1 or CB2 receptors are seeded 17-24 hours prior to the experiment 50.000 cells per well in a black 96 well plate with flat clear bottom (Corning Costar #3904) in DMEM (Invitrogen No. 31331), 1×HT supplement, with 10% fetal calf serum and incubated at 5% CO2 and 37° C. in a humidified incubator. The growth medium was exchanged with Krebs Ringer Bicarbonate buffer with 1 mM IBMX and incubated at 30° C. for 30 min Compounds were added to a final assay volume of 100 ul and incubated for 30 min at 30° C. Using the cAMP-Nano-TRF detection kit the assay (Roche Diagnostics) was stopped by the addition of 50 ul lysis reagent (Tris, NaCl, 1.5% Triton X100, 2.5% NP40, 10% NaN3) and 50 ul detection solutions (20 uM mAb Alexa700-cAMP 1:1, and 48 uM Ruthenium-2-AHA-cAMP) and shaken for 2 h at room temperature. The time-resolved energy transfer is measured by a TRF reader (Evotec Technologies GmbH), equipped with a ND:YAG laser as excitation source. The plate is measured twice with the excitation at 355 nm and at the emission with a delay of 100 ns and a gate of 100 ns, total exposure time 10 s at 730 (bandwidth 30 nm) or 645 nm (bandwidth 75 nm), respectively. The FRET signal is calculated.

Cannabinoid receptor 2 = Cannabinoid receptor 2 (Homo sapiens, UniProt P34972); experiment: cAMP Assay; details: 37 °C
Sequence of Cannabinoid receptor 2 (P34972 whole entry): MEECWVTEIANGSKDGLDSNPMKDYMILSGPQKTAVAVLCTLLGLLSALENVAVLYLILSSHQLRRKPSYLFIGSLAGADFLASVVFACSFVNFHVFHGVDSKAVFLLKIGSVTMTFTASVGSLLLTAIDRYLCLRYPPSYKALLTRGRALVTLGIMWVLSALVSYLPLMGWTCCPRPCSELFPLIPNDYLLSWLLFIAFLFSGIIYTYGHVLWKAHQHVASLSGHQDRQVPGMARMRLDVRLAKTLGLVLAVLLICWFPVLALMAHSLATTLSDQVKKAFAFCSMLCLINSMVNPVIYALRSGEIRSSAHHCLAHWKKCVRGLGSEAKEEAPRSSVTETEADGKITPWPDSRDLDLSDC
Experimental: as §1

Sequence of Cannabinoid receptor 1 (P21554 whole entry): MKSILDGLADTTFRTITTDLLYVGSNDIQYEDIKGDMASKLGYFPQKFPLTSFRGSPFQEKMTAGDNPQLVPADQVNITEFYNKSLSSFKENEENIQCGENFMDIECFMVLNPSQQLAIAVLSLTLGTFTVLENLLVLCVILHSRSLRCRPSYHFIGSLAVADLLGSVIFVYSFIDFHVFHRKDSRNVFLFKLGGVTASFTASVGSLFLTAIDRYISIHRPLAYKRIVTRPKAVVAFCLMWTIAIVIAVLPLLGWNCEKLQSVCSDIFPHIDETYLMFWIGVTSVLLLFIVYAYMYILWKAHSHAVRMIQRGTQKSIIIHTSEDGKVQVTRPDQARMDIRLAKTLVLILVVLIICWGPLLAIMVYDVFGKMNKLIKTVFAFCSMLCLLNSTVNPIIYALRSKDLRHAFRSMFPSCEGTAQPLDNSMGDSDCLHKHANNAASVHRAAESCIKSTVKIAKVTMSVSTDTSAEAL

Compound | EC50 (Cannabinoid receptor 1) [µM] | EC50 (Cannabinoid receptor 2) [nM]
O=C(c1ccc(C2CCCC2)c(OCC2CC2)n1)N1CCS(=O)(=O)CC1 [US9290451, 39] | > 10 | 303
O=C(c1ccc(C2CC2)c(-c2cccc(Cl)c2)n1)N1CCS(=O)(=O)CC1 [US9290451, 48] | > 10 | 477
CC(C)(CO)NC(=O)c1ccc(NC2CC2)c(OCC2CC2)n1 [US9290451, 159] | > 10 | 780
Cc1cnc(C(C)(C)NC(=O)c2ccc(N3CC(F)(F)C3)c(OCC3CC3)n2)s1 [US9290451, 353] | > 10 | 4.9
